# Assays:
# TNFα [1] = assay: Inhibition of TNFα expression in LPS-activated dendritic cells (ELISA of supernatants); assay type: cell-based, C57BL/6J male mice; settings: for TNFα expression level relative to LPS alone: LPS-activated dendritic cells; for TNFα (pg/mL): dendritic cells, 100 ng/mL LPS 18 h
# Method: (§1) The dendritic cells at 1×10^6 cells/mL were treated with benfotiamine and fursultiamine at different concentrations of 0, 1, 10, and 100 and allithiamine at different concentrations of 0, 1, and 10 μM.
# Thereafter, the dendritic cells were activated with 100 ng/mL LPS for 18 hours.
# CD40 = CD40 expression in CD11c+ dendritic cells by flow cytometry; assay type: cell-based, C57BL/6J male mice
# Method: as §1
# (§2) The dendritic cells were measured for CD40 and CD86 in CD11c+ cells by flow cytometry, and the results are shown in FIGS. 6A and 6B and Tables 5 and 6.
# TNFα [2] = assay: Inhibition of TNFα expression in LPS-activated dendritic cells (ELISA of supernatants); assay type: cell-based, C57BL/6J male mice; settings: 10 μM; dendritic cells not stimulated by LPS
# [3] = system: LPS-induced sepsis mouse model; assay: Survival rate of murine sepsis model, allithiamine treatment; assay type: in vivo, C57BL/6J male mice
# Method: The mice were intravenously (I.V.) administered 5 mg/kg allithiamine immediately before intraperitoneal injection of 50 mg/kg LPS, and then the survival rates were monitored (allithiamine 5 mg/kg co-treatment). In addition, the mice were intravenously administered 5 mg/kg allithiamine three hours after LPS injection, and then the survival rates were monitored (allithiamine 5 mg/kg 3 h-delayed co-treatment), and the results are shown in FIG. 3 and Table 2.
# TNFα [4] = assay: Inhibition of TNFα expression in vivo (allithiamine along with LPS); set-up: species or system mice
# Method: The inhibition of TNFα expression in vivo was investigated by the administration of 5 mg/kg allithiamine along with 50 mg/kg LPS, and the results are shown in FIG. 7A and Table 7.
# CD86 = CD86 expression in CD11c+ dendritic cells by flow cytometry; assay type: cell-based, C57BL/6J male mice
# Method: as §1, §2
# [5] = 1 μM, dendritic cells, 100 ng/mL LPS
# [6] = 10 μM, dendritic cells not stimulated by LPS
# [7] = 10 μM, dendritic cells, 100 ng/mL LPS
# [8] = allithiamine 5 mg/kg along with LPS 50 mg/kg
structure (smiles),measurement,setting,value
"C=CCSS/C(CCO)=C(/C)N(C=O)Cc1cnc(C)nc1N [Allithiamine, allithiamine]",TNFα expression level relative to LPS alone,TNFα [1]; 1 μM,about 88.68%
same,TNFα (pg/mL),TNFα [1]; 1 μM,"4,654.84 pg/mL"
same,TNFα expression level relative to LPS alone,TNFα [1]; 10 μM,about 74.68%
same,TNFα (pg/mL),TNFα [1]; 10 μM,"3,919.75 pg/mL"
same,CD40 (Mean fluorescence intensity; MFI),CD40; [5],"1,998 MFI"
same,CD40 expression level relative to LPS alone,"CD40; 10 μM, dendritic cells",about 49%
same,CD40 (Mean fluorescence intensity; MFI),CD40; [6],253 MFI
same,CD40 (Mean fluorescence intensity; MFI),CD40; [7],982 MFI
same,TNFα,TNFα [2],78.51 pg/mL
same,Percent survival (%),"[3]; 5 mg/kg i.v. 3 h-delayed treatment (3 h after 50 mg/kg LPS i.p.), 0 h",100%
same,Percent survival (%),"[3]; 5 mg/kg i.v. 3 h-delayed treatment, 50 mg/kg LPS, 20 h",100%
same,Percent survival (%),"[3]; 5 mg/kg i.v. 3 h-delayed treatment, 50 mg/kg LPS, 24 h",100%
same,Percent survival (%),"[3]; 5 mg/kg i.v. 3 h-delayed treatment, 50 mg/kg LPS, 28 h",83.3%
same,Percent survival (%),"[3]; 5 mg/kg i.v. 3 h-delayed treatment, 50 mg/kg LPS, 32 h",83.3%
same,Percent survival (%),"[3]; 5 mg/kg i.v. 3 h-delayed treatment, 50 mg/kg LPS, 36 h",83.3%
same,Percent survival (%),"[3]; 5 mg/kg i.v. 3 h-delayed treatment, 50 mg/kg LPS, 40 h",83.3%
same,Percent survival (%),"[3]; 5 mg/kg i.v. 3 h-delayed treatment, 50 mg/kg LPS, 44 h",66.7%
same,Percent survival (%),"[3]; 5 mg/kg i.v. 3 h-delayed treatment, 50 mg/kg LPS, 48 h",66.7%
same,Percent survival (%),"[3]; 5 mg/kg i.v. 3 h-delayed treatment, 50 mg/kg LPS, 52 h",66.7%
same,Percent survival (%),"[3]; 5 mg/kg i.v. 3 h-delayed treatment, 50 mg/kg LPS, 56 h",66.7%
same,Percent survival (%),"[3]; 5 mg/kg i.v. 3 h-delayed treatment, 50 mg/kg LPS, 60 h",66.7%
same,Percent survival (%),"[3]; 5 mg/kg i.v. co-treatment (immediately before 50 mg/kg LPS i.p.), 0 h",100%
same,Percent survival (%),"[3]; 5 mg/kg i.v. co-treatment, 50 mg/kg LPS, 20 h",100%
same,Percent survival (%),"[3]; 5 mg/kg i.v. co-treatment, 50 mg/kg LPS, 24 h",83.3%
same,Percent survival (%),"[3]; 5 mg/kg i.v. co-treatment, 50 mg/kg LPS, 28 h",83.3%
same,Percent survival (%),"[3]; 5 mg/kg i.v. co-treatment, 50 mg/kg LPS, 32 h",83.3%
same,Percent survival (%),"[3]; 5 mg/kg i.v. co-treatment, 50 mg/kg LPS, 36 h",66.7%
same,Percent survival (%),"[3]; 5 mg/kg i.v. co-treatment, 50 mg/kg LPS, 40 h",66.7%
same,Percent survival (%),"[3]; 5 mg/kg i.v. co-treatment, 50 mg/kg LPS, 44 h",66.7%
same,Percent survival (%),"[3]; 5 mg/kg i.v. co-treatment, 50 mg/kg LPS, 48 h",66.7%
same,Percent survival (%),"[3]; 5 mg/kg i.v. co-treatment, 50 mg/kg LPS, 52 h",66.7%
same,Percent survival (%),"[3]; 5 mg/kg i.v. co-treatment, 50 mg/kg LPS, 56 h",66.7%
same,Percent survival (%),"[3]; 5 mg/kg i.v. co-treatment, 50 mg/kg LPS, 60 h",66.7%
same,Reduction of TNFα expression relative to LPS alone,TNFα [4]; [8],about 46.494%
same,TNFα (pg/mL),TNFα [4]; [8],"2,084.883 pg/mL"
same,TNFα,"TNFα [4]; allithiamine 5 mg/kg, without LPS",82.442 pg/mL
same,CD86 (Mean fluorescence intensity; MFI),CD86; [5],"2,184 MFI"
same,CD86 expression level relative to LPS alone,"CD86; 10 μM, dendritic cells",about 64%
same,CD86 (Mean fluorescence intensity; MFI),CD86; [6],304 MFI
same,CD86 (Mean fluorescence intensity; MFI),CD86; [7],"1,704 MFI"
